Data reported in US5079157A, “Novel choline oxidase and method for producing the same” (priority 1988, dated 1992).
Read-outs that look alike come from different tables or passages of the source.

Key:
[1] = tested on: choline oxidase (authentic sample T); details: authentic sample T (Example 10)
Protocol: (§2) A peroxidase (obtained from horse radish, 100 units/mg, Type I, Sigma Chemical Co., U.S.A.) is dissolved in the above mixture to obtain a reaction mixture. The reaction mixture (3.0 ml) is placed in a cuvette (d=1.0 cm) and subjected to pre-heating at 37° C. for 5 minutes. Then, the changes of absorbance at 500 nm at 37° C. are recorded by an autographic recording spectrophotometer (UV-260 Type, Shimadzu Seisakusho, Ltd.) and the changes of absorbance per minute (ΔA/min.) from the initial straight line portion are determined. The enzymatic activity is calculated by the following formula:

choline oxidase [2] = assay: Substrate specificity of choline oxidase (authentic sample of Example 1); assay type: biochemical, Streptomyces thermoluteus subsp. fuscus C-19; details: substrate used in place of choline chloride; relative to choline; enzyme of Example 1; Tris-HCl pH 8.0, 37° C
Protocol: (§1) Enzymatic activity (U/ml)=ΔA/min.×10.17×dilution ratio
According to the above determination method of enzymatic activity, various substrates shown in Table 2 were used in place of choline chloride in the reaction mixture, their relative activities to choline were determined. As the enzyme, the authentic sample obtained in Example 1 hereinafter was employed.

[3] = molecular target: T1, choline oxidase (authentic sample S) (Saccharopolyspora hirsuta, UniProt A0A5M7BLR6); details: authentic sample S (Example 11)
T1 sequence (A0A5M7BLR6 1-515): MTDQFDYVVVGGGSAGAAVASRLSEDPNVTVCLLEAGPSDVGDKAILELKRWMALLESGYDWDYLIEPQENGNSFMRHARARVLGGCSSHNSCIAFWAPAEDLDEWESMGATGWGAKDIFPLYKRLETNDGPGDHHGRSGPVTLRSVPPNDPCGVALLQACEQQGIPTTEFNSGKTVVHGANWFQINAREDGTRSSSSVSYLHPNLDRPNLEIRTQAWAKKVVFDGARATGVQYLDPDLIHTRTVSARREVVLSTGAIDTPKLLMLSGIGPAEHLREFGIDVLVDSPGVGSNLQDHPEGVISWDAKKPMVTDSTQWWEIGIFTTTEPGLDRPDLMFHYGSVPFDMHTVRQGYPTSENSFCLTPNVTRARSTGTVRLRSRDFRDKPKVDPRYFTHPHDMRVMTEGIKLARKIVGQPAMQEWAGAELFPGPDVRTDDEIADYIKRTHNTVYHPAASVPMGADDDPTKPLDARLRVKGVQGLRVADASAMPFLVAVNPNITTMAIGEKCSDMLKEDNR
Protocol: as §2

choline oxidase [4] = assay type: biochemical
Protocol: as §1
Various substances were added to the reaction mixture to be used for the determination of enzymatic activity as described in the above (2) and the inhibitory effects were examined.

[5] = additive 5 mM, without addition = 100
[6] = additive 1.0 mM, without addition = 100

C[N+](C)(C)CC=O [Betaine aldehyde]
reactivity of the enzyme to the substrate [1]: showed reactivity
Relative Activity (%) (choline oxidase [2]): 41.9%
reactivity of the enzyme to the substrate [3]: showed reactivity

CNCCO [N-methylaminoethanol]
Relative Activity (%) (choline oxidase [2]): 0%

[Cl-].[Li+] [LiCl]
Relative Activity (%) (choline oxidase [4]; [5]): 100%

[Cl][Mo]([Cl])([Cl])([Cl])[Cl] [MoCl5]
Relative Activity (%) (choline oxidase [4]; [6]): 18.1%

[Cl-].[Cl-].[Mg+2] [MgCl2]
Relative Activity (%) (choline oxidase [4]; [5]): 93.8%

[Ca+2].[Cl-].[Cl-] [CaCl2]
Relative Activity (%) (choline oxidase [4]; [5]): 100%

[Cl][Mn][Cl] [MnCl2]
Relative Activity (%) (choline oxidase [4]; [5]): 100%

[Cl-].[Cl-].[Co+2] [CoCl2]
Relative Activity (%) (choline oxidase [4]; [5]): 36.9%

OCCNCCO [Diethanolamine]
Relative Activity (%) (choline oxidase [2]): 0%

Cl.N [NH4 Cl]
Relative Activity (%) (choline oxidase [4]; [5]): 100%

[Ba+2].[Cl-].[Cl-] [BaCl2]
Relative Activity (%) (choline oxidase [4]; [5]): 100%

[Cl-].[K+] [KCl]
Relative Activity (%) (choline oxidase [4]; [5]): 98.0%

NCCO [Monoethanolamine]
Relative Activity (%) (choline oxidase [2]): 0%

[Cl-].[Cl-].[Zn+2] [ZnCl2]
Relative Activity (%) (choline oxidase [4]; [5]): 82.9%

[Cl-].[Na+] [NaCl]
Relative Activity (%) (choline oxidase [4]): 100%

[Cl][Hg][Cl] [HgCl2]
Relative Activity (%) (choline oxidase [4]; additive 0.05 mM, without addition = 100): 83.3%
Relative Activity (%) (choline oxidase [4]; additive 0.5 mM, without addition = 100): 60.1%
Relative Activity (%) (choline oxidase [4]; [6]): 50.0%
